Source: ChEMBL document CHEMBL4507274 (2021)

Key:
[1] = tested on: Tyrosine-protein kinase ABL1 (Homo sapiens), P00519 [F317I]; settings: Compound concentration 100.0 nM
[2] = target: RAC-alpha serine/threonine-protein kinase (Homo sapiens) (UniProt P31749); settings: Compound concentration 100.0 nM
[3] = target: Ankyrin repeat and protein kinase domain-containing protein 1 (Homo sapiens) (UniProt Q8NFD2); settings: Compound concentration 100.0 nM
[4] = target: Tyrosine-protein kinase receptor UFO (Homo sapiens) (UniProt P30530); settings: Compound concentration 100.0 nM
[5] = target: Peripheral plasma membrane protein CASK (Homo sapiens) (UniProt O14936); settings: Compound concentration 100.0 nM
[6] = target: Casein kinase II subunit alpha (Homo sapiens) (UniProt P68400); settings: Compound concentration 100.0 nM
[7] = target: Myotonin-protein kinase (Homo sapiens) (UniProt Q09013); settings: Compound concentration 100.0 nM
Sequence of Myotonin-protein kinase (Homo sapiens) (Q09013 whole entry): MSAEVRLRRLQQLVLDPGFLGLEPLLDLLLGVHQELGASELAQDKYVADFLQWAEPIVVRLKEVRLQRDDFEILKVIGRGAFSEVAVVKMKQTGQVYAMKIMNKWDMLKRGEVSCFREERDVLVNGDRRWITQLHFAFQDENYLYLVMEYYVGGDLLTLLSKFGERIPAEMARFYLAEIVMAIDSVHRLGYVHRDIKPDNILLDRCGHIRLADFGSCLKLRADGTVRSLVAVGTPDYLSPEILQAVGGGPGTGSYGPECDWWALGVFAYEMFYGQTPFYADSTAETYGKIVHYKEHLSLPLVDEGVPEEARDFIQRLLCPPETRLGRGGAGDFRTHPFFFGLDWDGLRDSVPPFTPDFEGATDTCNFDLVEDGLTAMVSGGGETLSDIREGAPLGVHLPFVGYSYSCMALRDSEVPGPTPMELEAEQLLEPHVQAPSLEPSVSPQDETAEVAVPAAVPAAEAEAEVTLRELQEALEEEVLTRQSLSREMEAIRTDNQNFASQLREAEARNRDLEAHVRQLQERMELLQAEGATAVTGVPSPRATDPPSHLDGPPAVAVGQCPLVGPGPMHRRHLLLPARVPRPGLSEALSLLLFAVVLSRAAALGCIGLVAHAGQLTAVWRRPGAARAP

[8] = target: Ephrin type-A receptor 6 (Homo sapiens) (UniProt Q9UF33); settings: Compound concentration 100.0 nM
Sequence of Ephrin type-A receptor 6 (Homo sapiens) (Q9UF33 whole entry): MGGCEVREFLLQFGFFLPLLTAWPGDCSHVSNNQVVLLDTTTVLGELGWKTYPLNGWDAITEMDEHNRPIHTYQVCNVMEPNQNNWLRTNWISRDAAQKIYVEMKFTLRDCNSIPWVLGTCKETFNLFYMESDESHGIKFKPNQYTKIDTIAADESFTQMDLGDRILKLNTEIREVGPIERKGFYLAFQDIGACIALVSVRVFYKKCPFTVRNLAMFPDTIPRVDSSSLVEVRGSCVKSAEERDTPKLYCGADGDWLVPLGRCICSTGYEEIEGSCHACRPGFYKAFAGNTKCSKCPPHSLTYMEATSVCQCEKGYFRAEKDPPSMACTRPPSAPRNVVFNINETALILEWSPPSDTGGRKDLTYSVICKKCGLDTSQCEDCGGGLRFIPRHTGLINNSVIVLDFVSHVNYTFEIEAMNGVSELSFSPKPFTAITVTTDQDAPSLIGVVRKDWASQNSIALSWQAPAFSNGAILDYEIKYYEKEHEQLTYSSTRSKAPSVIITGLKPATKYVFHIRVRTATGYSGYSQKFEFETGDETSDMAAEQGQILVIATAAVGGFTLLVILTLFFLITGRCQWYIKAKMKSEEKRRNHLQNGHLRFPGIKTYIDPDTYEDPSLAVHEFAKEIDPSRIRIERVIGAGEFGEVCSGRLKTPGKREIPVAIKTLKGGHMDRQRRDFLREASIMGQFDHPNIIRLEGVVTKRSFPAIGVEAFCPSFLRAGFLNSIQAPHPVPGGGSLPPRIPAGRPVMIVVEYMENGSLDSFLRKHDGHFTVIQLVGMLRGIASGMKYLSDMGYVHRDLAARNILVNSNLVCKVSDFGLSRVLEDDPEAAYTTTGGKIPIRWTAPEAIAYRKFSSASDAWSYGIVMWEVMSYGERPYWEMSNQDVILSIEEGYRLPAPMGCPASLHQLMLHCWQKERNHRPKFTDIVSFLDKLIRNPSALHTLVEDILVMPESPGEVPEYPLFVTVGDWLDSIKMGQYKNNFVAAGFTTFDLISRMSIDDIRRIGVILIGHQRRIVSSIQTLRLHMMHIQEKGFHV

[9] = target: Ephrin type-B receptor 6 (Homo sapiens) (UniProt O15197); settings: Compound concentration 100.0 nM
[10] = target: Mitogen-activated protein kinase 15 (Homo sapiens) (UniProt Q8TD08); settings: Compound concentration 100.0 nM
Sequence of Mitogen-activated protein kinase 15 (Homo sapiens) (Q8TD08 whole entry): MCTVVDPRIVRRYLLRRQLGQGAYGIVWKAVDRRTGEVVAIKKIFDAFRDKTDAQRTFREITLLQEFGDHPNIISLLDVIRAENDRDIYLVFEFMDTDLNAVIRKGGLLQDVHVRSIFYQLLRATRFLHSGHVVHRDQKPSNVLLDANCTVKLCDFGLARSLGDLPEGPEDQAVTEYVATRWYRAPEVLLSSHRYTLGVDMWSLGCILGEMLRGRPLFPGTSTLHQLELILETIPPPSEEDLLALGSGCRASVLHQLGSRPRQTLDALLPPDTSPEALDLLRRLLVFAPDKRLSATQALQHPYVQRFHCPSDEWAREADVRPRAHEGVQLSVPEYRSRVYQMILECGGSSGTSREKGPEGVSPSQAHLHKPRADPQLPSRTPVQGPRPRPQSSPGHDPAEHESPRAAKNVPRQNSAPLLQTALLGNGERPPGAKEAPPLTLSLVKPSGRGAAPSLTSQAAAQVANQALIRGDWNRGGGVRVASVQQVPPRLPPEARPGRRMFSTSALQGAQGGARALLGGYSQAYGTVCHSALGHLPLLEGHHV

[11] = tested on: Receptor-type tyrosine-protein kinase FLT3 (Homo sapiens), P36888 [D835H]; settings: Compound concentration 100.0 nM
[12] = tested on: Receptor-type tyrosine-protein kinase FLT3 (Homo sapiens), P36888 [N841I]; settings: Compound concentration 100.0 nM
[13] = target: Serine/threonine-protein kinase ICK (Homo sapiens) (UniProt Q9UPZ9); settings: Compound concentration 100.0 nM
[14] = target: Serine/threonine-protein kinase STK11 (Homo sapiens) (UniProt Q15831); settings: Compound concentration 100.0 nM
[15] = target: Serine/threonine-protein kinase MARK1 (Homo sapiens) (UniProt Q9P0L2); settings: Compound concentration 100.0 nM
Sequence of Serine/threonine-protein kinase MARK1 (Homo sapiens) (Q9P0L2 whole entry, looked up): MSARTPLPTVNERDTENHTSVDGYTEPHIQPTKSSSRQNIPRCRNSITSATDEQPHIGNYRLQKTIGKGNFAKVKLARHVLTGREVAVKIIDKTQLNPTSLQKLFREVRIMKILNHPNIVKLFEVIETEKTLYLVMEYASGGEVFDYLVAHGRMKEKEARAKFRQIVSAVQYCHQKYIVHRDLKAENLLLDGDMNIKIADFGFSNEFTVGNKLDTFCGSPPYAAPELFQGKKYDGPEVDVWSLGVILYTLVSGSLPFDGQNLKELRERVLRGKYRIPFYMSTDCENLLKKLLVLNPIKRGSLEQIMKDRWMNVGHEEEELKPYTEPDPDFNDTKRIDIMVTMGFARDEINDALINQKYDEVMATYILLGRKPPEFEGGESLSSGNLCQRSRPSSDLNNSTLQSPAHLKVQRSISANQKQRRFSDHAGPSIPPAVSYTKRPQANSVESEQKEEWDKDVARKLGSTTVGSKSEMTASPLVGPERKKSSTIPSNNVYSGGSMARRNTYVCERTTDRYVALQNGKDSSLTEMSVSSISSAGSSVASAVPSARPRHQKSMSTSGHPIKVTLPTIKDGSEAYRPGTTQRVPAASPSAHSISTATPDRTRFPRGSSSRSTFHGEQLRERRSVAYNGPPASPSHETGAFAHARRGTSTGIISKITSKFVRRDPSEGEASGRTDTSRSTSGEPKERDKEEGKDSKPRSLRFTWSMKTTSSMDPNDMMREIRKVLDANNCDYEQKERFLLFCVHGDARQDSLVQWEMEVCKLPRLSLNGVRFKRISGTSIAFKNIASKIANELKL

[16] = target: Misshapen-like kinase 1 (Homo sapiens) (UniProt Q8N4C8); settings: Compound concentration 100.0 nM
[17] = target: Mitogen-activated protein kinase kinase kinase 9 (Homo sapiens) (UniProt P80192); settings: Compound concentration 100.0 nM
[18] = target: Serine/threonine-protein kinase 24 (Homo sapiens) (UniProt Q9Y6E0); settings: Compound concentration 100.0 nM
[19] = target: Serine/threonine-protein kinase Nek7 (Homo sapiens) (UniProt Q8TDX7); settings: Compound concentration 100.0 nM
[20] = target: Cyclin-dependent kinase 18 (Homo sapiens) (UniProt Q07002); settings: Compound concentration 100.0 nM
[21] = target: Phosphatidylinositol 3-kinase C2 domain-containing subunit gamma (Homo sapiens) (UniProt O75747); settings: Compound concentration 100.0 nM
[22] = tested on: Phosphatidylinositol 4,5-bisphosphate 3-kinase catalytic subunit alpha isoform (Homo sapiens), P42336 [H1047L]; settings: Compound concentration 100.0 nM
[23] = target: Phosphatidylinositol 4,5-bisphosphate 3-kinase catalytic subunit delta isoform (Homo sapiens) (UniProt O00329); settings: Compound concentration 100.0 nM
Sequence of Phosphatidylinositol 4,5-bisphosphate 3-kinase catalytic subunit delta isoform (Homo sapiens) (O00329 whole entry, canonical isoform): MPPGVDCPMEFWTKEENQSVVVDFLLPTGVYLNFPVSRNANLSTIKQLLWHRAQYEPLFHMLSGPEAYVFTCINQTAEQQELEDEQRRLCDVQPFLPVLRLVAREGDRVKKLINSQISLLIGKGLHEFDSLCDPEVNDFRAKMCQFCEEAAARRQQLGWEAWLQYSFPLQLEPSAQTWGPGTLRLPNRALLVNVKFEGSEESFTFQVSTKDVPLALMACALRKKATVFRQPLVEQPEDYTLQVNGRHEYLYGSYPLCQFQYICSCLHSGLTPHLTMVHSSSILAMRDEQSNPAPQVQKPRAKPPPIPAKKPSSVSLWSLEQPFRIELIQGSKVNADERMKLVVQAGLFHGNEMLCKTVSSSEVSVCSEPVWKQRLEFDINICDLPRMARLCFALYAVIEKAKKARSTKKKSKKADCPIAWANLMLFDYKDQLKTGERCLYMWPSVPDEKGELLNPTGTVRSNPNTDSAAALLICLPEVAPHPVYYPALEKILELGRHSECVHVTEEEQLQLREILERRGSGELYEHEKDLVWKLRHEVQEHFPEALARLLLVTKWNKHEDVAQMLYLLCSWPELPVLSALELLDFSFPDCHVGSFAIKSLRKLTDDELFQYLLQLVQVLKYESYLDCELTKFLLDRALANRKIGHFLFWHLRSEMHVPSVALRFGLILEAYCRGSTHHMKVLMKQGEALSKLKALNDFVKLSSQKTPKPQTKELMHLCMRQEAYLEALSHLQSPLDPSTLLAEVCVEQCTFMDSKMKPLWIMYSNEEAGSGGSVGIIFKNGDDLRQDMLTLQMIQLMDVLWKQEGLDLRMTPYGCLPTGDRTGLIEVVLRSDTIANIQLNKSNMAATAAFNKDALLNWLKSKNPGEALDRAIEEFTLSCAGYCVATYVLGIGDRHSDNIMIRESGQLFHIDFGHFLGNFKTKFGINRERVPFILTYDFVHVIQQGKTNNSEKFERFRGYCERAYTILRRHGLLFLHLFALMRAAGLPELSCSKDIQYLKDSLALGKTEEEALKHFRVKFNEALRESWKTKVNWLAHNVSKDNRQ

[24] = target: T1, Serine/threonine-protein kinase D2 (Homo sapiens) (UniProt Q9BZL6); settings: Compound concentration 100.0 nM
T1 sequence (whole entry): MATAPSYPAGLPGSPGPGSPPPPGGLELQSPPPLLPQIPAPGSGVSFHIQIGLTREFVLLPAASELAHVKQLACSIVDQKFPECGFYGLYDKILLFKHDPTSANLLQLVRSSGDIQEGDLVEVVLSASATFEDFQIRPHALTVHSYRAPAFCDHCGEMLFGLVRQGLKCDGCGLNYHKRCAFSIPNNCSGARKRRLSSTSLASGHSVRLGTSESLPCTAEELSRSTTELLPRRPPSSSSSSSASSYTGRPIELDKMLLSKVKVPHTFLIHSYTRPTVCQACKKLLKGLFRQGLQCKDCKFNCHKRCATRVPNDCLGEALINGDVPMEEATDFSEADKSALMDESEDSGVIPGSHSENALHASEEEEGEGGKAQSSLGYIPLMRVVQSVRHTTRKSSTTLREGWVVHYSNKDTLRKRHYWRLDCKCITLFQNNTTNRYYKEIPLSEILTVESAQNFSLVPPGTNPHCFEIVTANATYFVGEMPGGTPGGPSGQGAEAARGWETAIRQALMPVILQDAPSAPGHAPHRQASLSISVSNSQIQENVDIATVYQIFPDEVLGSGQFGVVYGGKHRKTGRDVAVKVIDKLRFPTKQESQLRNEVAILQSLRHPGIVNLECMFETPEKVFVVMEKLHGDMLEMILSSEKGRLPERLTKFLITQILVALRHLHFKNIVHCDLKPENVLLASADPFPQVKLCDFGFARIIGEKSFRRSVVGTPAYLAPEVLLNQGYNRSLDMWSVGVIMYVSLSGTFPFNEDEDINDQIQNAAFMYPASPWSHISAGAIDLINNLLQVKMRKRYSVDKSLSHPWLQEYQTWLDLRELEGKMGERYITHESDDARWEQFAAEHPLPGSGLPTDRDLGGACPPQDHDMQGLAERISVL

[25] = target: cGMP-dependent protein kinase 2 (Homo sapiens) (UniProt Q13237); settings: Compound concentration 100.0 nM
Sequence of cGMP-dependent protein kinase 2 (Homo sapiens) (Q13237 whole entry): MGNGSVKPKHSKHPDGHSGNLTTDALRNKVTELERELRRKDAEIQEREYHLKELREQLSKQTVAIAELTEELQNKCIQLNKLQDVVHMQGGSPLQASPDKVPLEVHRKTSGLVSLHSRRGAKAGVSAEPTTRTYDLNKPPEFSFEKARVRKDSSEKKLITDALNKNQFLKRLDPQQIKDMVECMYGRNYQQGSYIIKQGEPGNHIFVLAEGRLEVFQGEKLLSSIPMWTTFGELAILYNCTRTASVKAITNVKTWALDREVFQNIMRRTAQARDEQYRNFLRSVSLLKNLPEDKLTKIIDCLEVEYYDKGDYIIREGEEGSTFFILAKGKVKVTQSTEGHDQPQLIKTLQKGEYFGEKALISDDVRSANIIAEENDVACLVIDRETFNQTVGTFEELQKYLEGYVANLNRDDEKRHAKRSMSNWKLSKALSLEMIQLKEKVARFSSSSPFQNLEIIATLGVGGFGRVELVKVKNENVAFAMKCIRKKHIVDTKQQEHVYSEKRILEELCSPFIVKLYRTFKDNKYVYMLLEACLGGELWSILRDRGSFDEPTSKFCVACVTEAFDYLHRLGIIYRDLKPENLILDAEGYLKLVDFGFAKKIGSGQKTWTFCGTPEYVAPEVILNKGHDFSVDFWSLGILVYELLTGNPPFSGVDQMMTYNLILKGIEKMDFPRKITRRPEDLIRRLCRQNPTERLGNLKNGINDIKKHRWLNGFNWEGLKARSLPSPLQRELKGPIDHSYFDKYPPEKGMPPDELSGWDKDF

[26] = target: Ribosomal protein S6 kinase alpha-3 (Homo sapiens) (UniProt P51812); settings: Compound concentration 100.0 nM
[27] = target: Ribosomal protein S6 kinase alpha-2 (Homo sapiens) (UniProt Q15349); settings: Compound concentration 100.0 nM
[28] = target: Ribosomal protein S6 kinase beta-1 (Homo sapiens) (UniProt P23443); settings: Compound concentration 100.0 nM
[29] = target: SNF-related serine/threonine-protein kinase (Homo sapiens) (UniProt Q9NRH2); settings: Compound concentration 100.0 nM
[30] = target: Mitogen-activated protein kinase kinase kinase 7 (Homo sapiens) (UniProt O43318); settings: Compound concentration 100.0 nM
[31] = target: Serine/threonine-protein kinase TBK1 (Homo sapiens) (UniProt Q9UHD2); settings: Compound concentration 100.0 nM
[32] = target: Serine/threonine-protein kinase tousled-like 2 (Homo sapiens) (UniProt Q86UE8); settings: Compound concentration 100.0 nM
[33] = target: Muscarinic acetylcholine receptor M3 (Homo sapiens) (UniProt P20309); settings: Compound concentration 10.0 uM

Cc1c[nH]c2nccc(Oc3c(F)cc(Nc4cc(Cl)nc(N)n4)cc3F)c12 [BAY-549]
inactive: residual activity [1] 55% | residual activity [2] 100% | residual activity [3] 85% | residual activity [4] 93% | residual activity [5] 98% | residual activity [6] 100% | residual activity [7] 56% | residual activity [8] 100% | residual activity [9] 96% | residual activity [10] 100% | residual activity [11] 100% | residual activity [12] 76% | residual activity [13] 79% | residual activity [14] 100% | residual activity [15] 82% | residual activity [16] 100% | residual activity [17] 89% | residual activity [18] 100% | residual activity [19] 100% | residual activity [20] 100% | residual activity [21] 100% | residual activity [22] 81% | residual activity [23] 51% | residual activity [24] 94% | residual activity [25] 90% | residual activity [26] 79% | residual activity [27] 100% | residual activity [28] 85% | residual activity [29] 77% | residual activity [30] 92% | residual activity [31] 96% | residual activity [32] 95% | inhibition [33] -0.34%

Cn1cc(Cl)c2c(Oc3c(F)cc(Nc4cc(Cl)nc(N)n4)cc3F)ccnc21 [BAY-4900]
inactive: residual activity [1] 89% | residual activity [2] 75% | residual activity [3] 83% | residual activity [4] 100% | residual activity [5] 100% | residual activity [6] 98% | residual activity [7] 86% | residual activity [8] 100% | residual activity [9] 100% | residual activity [10] 100% | residual activity [11] 78% | residual activity [12] 96% | residual activity [13] 100% | residual activity [14] 100% | residual activity [15] 100% | residual activity [16] 93% | residual activity [17] 96% | residual activity [18] 100% | residual activity [19] 100% | residual activity [20] 100% | residual activity [21] 100% | residual activity [22] 83% | residual activity [23] 51% | residual activity [24] 91% | residual activity [25] 83% | residual activity [26] 71% | residual activity [27] 100% | residual activity [28] 84% | residual activity [29] 86% | residual activity [30] 100% | residual activity [31] 100% | residual activity [32] 100% | inhibition [33] -4.88%
